Reference: US20130029928A1 (priority 2010, published 2013)
Like-named read-outs stand apart in the source and are kept apart here.

Assay: Phase I study CXR1002-001: plasma pharmacokinetics (LC-MS/MS)
Format: in vivo, human
Details: for concentration at 696 h: 696 hr (Day 29)
Text: PK samples, PD (fasting) samples, blood glucose, and blood triglyceride samples, were taken over a 6-week period.
Dose limiting toxicity (DLT) will be based on the toxicity assessments over the first 3-week period of the repeat dosing schedule. PK samples (single blood sample) were taken on the following basis: • Every 6 weeks during the repeat dosing phase • If dosing is interrupted or stopped, samples will be taken at intervals according to patient convenience • PK sampling for safety evaluation may take place at any time, as clinically indicated
Plasma samples were collected after the single 50 mg dose at the following timepoints: Pre-dose, and then 0.25, 0.5, 0.75, 1, 1.5, 2, 3, 4, 6, 24, 48, and 72 hours after administration and then once weekly at weeks 2, 3, 4, 5, and 6 (days 8, 15, 22, 29, and 36). For patients treated with the weekly repeat dose, plasma samples were collected at the following timepoints: Pre-dose and then 2, 3, 4 and 24 hours after administration for a total of 6 weeks. Thereafter a single sample was collected every 6 weeks for monitoring of exposure during long term treatment. Plasma samples were processed at site and stored at −80° C. prior to batch shipment to the analytical laboratory.

[1] = human, plasma, oral, 50 mg, Patient 001 Dose 50 mg
[2] = human, plasma, oral, 50 mg, Patient 001 Dose 50 mg, read-out: Concentration
[3] = human, plasma, oral, 50 mg, Patient 002 Dose 50 mg
[4] = human, plasma, oral, 50 mg, Patient 002 Dose 50 mg, read-out: Concentration
[5] = human, plasma, oral, 50 mg, Patient 003 Dose 50 mg

## O=C(O)C(F)(F)C(F)(F)C(F)(F)C(F)(F)C(F)(F)C(F)(F)C(F)(F)F [CXR1002]
1200 mg weekly dose over a 5 week period, one patient
  maximal plasma level recorded: 1530 µM
Patient 032, 950 mg, person, plasma, 0 hr (pre-dose)
  Concentration: BLQ
Clinical trials
  oral bioavailability: orally bioavailable
female, human, plasma, oral, Female, plasma, 168 hr (Day 8), read-out: Concentration
  concentration at 168 h: 146 µM
female, human, plasma, oral, Female, plasma, 170 hr, read-out: Concentration
  concentration at 170 h: 276 µM
female, human, plasma, oral, Female, plasma, 171 hr, read-out: Concentration
  concentration at 171 h: 253 µM
female, human, plasma, oral, Female, plasma, 172 hr, read-out: Concentration
  concentration at 172 h: 248 µM
female, human, plasma, oral, Female, plasma, 192 hr (Day 9), read-out: Concentration
  concentration at 192 h: 246 µM
female, human, plasma, oral, Female, plasma, 504 hr (Day 22), read-out: Concentration
  concentration at 504 h: 333 µM
female, human, plasma, oral, Female, plasma, 506 hr, read-out: Concentration
  concentration at 506 h: 427 µM
female, human, plasma, oral, Female, plasma, 507 hr, read-out: Concentration
  concentration at 507 h: 412 µM
female, human, plasma, oral, Female, plasma, 528 hr (Day 23), read-out: Concentration
  concentration at 528 h: 405 µM
female, human, plasma, oral, Female, plasma, 840 hr (Day 36), read-out: Concentration
  concentration at 840 h: 434 µM
female, human, plasma, oral, Female, plasma, 842 hr, read-out: Concentration
  concentration at 842 h: 461 µM
female, human, plasma, oral, Female, plasma, 843 hr, read-out: Concentration
  concentration at 843 h: 457 µM
female, human, plasma, oral, Female, plasma, 844 hr, read-out: Concentration
  concentration at 844 h: 482 µM
female, human, plasma, oral, Female, plasma, 864 hr (Day 37), read-out: Concentration
  concentration at 864 h: 526 µM
[1]
  concentration at 0 h: 0 µM
  concentration at 0.25 h: 0.35 µM
  concentration at 1.5 h: 25.7 µM
  concentration at 6 h: 14.7 µM
  concentration at 48 h: 12.8 µM
human, plasma, oral, 50 mg, Patient 001 Dose 50 mg, 0.5 hr
  concentration at 0.5 hr: 1.11 µM
human, plasma, oral, 50 mg, Patient 001 Dose 50 mg, 0.75 hr
  concentration at 0.75 hr: 9.17 µM
human, plasma, oral, 50 mg, Patient 001 Dose 50 mg, 1 hr
  concentration at 1 hr: 14.4 µM
human, plasma, oral, 50 mg, Patient 001 Dose 50 mg, 2 hr, read-out: Concentration
  concentration at 2 h: 22.5 µM
[2]
  concentration at 3 h: 20.8 µM
  concentration at 24 h: 13.8 µM
  concentration at 696 h: 10.2 µM
human, plasma, oral, 50 mg, Patient 001 Dose 50 mg, 72 hr
  concentration at 72 hr: 9.7 µM
human, plasma, oral, 50 mg, Patient 001 Dose 50 mg, 192 hr (Day 8), read-out: Concentration
  concentration at 192 hr: 8.54 µM
human, plasma, oral, 50 mg, Patient 001 Dose 50 mg, 360 hr (Day 15), read-out: Concentration
  concentration at 360 hr: 8.63 µM
human, plasma, oral, 50 mg, Patient 001 Dose 50 mg, 528 hr (Day 22), read-out: Concentration
  concentration at 528 h: 11.6 µM
human, plasma, oral, 50 mg, Patient 001 Dose 50 mg, 864 hr (Day 36), read-out: Concentration
  concentration at 864 h: 8.89 µM
human, plasma, oral, 50 mg, Patient 001 Dose 50 mg, Day 144
  concentration at 144 day: 226 µM
human, plasma, oral, 50 mg, Patient 001 Dose 50 mg, Day 179
  concentration at 179 day: 250 µM
human, plasma, oral, 50 mg, Patient 001 Dose 50 mg, Day 227
  concentration at 227 day: 308 µM
human, plasma, oral, 50 mg, Patient 001 Dose 50 mg, Day 268
  concentration at 268 day: 268 µM
[3]
  concentration at 0 h: 0 µM
  concentration at 0.25 h: 3.06 µM
  concentration at 1.5 h: 29.8 µM
  concentration at 6 h: 17.5 µM
  concentration at 48 h: 13.3 µM
human, plasma, oral, 50 mg, Patient 002 Dose 50 mg, 0.5 hr
  concentration at 0.5 h: 7.62 µM
human, plasma, oral, 50 mg, Patient 002 Dose 50 mg, 0.75 hr
  concentration at 0.75 h: 8.39 µM
human, plasma, oral, 50 mg, Patient 002 Dose 50 mg, 1 hr
  concentration at 1 h: 8.55 µM
[4]
  concentration at 3 h: 22.8 µM
  concentration at 24 h: 14.3 µM
  concentration at 696 h: 21 µM
human, plasma, oral, 50 mg, Patient 002 Dose 50 mg, 4 hr, read-out: Concentration
  concentration at 4 h: 14.5 µM
human, plasma, oral, 50 mg, Patient 002 Dose 50 mg, 72 hr
  concentration at 72 h: 15.6 µM
human, plasma, oral, 50 mg, Patient 002 Dose 50 mg, 192 hr (Day 8), read-out: Concentration
  concentration at 192 h: 17.2 µM
human, plasma, oral, 50 mg, Patient 002 Dose 50 mg, 360 hr (Day 15), read-out: Concentration
  concentration at 360 h: 18.6 µM
human, plasma, oral, 50 mg, Patient 002 Dose 50 mg, 528 hr (Day 22), read-out: Concentration
  concentration at 528 h: 21.5 µM
human, plasma, oral, 50 mg, Patient 002 Dose 50 mg, 864 hr (Day 36), read-out: Concentration
  concentration at 864 h: 20.1 µM
[5]
  concentration at 0 h: 0.14 µM
  concentration at 0.25 h: 1.08 µM
